Data reported in patent US8324226B2, “Therapeutic oxy-phenyl-aryl compounds and their use” (Cancer Research Technology Limited, priority 2007, dated 2012).
Where two headings read alike, the source gives them in different places.

Target: T1, CHK2 (Homo sapiens, UniProt O96017)
T1 construct: made in house
Test: CHK2 kinase activity assay (DELFIA, phosphorylation of a CDC25C peptide)
Assay type: biochemical
Conditions: ATP 30 μM, CHK2 1 nM, read-out: IC50, inhibition of CHK2 kinase activity in vitro

T1 sequence (O96017 whole entry): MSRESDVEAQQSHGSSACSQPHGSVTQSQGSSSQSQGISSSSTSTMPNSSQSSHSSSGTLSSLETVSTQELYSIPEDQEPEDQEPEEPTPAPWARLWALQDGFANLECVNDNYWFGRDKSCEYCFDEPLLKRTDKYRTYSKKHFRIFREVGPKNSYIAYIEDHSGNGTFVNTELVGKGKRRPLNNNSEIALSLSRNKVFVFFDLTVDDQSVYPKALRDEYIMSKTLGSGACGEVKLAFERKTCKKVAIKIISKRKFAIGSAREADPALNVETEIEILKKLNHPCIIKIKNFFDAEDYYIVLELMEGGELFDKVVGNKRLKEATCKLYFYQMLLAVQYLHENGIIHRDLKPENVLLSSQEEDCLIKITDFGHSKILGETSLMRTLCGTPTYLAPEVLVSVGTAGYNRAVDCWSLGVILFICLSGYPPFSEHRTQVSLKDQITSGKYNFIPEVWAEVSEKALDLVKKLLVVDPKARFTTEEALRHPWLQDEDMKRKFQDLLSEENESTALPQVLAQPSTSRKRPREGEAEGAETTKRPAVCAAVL

| Compound | IC50 (following further studies) [µM] | IC50 (first set of tested compounds) [µM] |
| --- | --- | --- |
| COCCOc1cc2nc(-c3cc(F)ccc3O)nc(N[C@H]3CCNC3)c2cc1OCCOC [Compound A-104, (S)-2-(6,7-bis(2-Methoxyethoxy)-4-(pyrrolidin-3-ylamino)quinazolin-2-yl)-4-fluorophenol] | ≤ 0.3 | – |
| COc1cccc([C@@H]2CNC[C@H]2Nc2nc(-c3cc(F)ccc3O)nc3ccccc23)c1 (relative stereo) [Compound A-091, 4-Fluoro-2-(4-(trans-4-(3-methoxyphenyl)pyrrolidin-3-ylamino)quinazolin-2-yl)phenol] | ≤ 0.3 | – |
| Oc1ccccc1-c1nc(N[C@H]2CCNC2)c2cc(-c3cn[nH]c3)ccc2n1 [Compound A-029, (S)-2-(6-(1H-Pyrazol-4-yl)-4-(pyrrolidin-3-ylamino)quinazolin-2-yl)phenol] | 0.3 to 3 | < 3 |
| COc1ccccc1[C@@H]1CNC[C@H]1Nc1nc(-c2cc(F)ccc2O)nc2ccccc12 (relative stereo) [Compound A-092, 4-Fluoro-2-(4-trans(4-(2-methoxyphenyl)pyrrolidin-3-ylamino)quinazolin-2-yl)phenol] | 0.3 to 3 | – |
| Cn1cc(-c2ccc3c(N[C@H]4CCNC4)nc(-c4ccccc4O)nc3c2)cn1 [Compound A-066, (S)-2-(7-(1-Methyl-1H-pyrazol-4-yl)-4-(pyrrolidin-3-ylamino)quinazolin-2-yl)phenol] | ≤ 0.3 | – |
| CN1CCC[C@H](Nc2nc(-c3ccccc3O)nc3ccccc23)C1 [Compound A-007, 2-[4-((S)-1-Methylpiperidin-3-ylamino)-quinazolin-2-yl]-phenol] | 3 to 30 | 3 to 30 |
| CN1CCN(C(=O)[C@H]2C[C@H](Nc3nc(-c4ccccc4O)nc4ccccc34)CN2)CC1 [Compound A-036, ((2R,4S)-4-(2-(2-Hydroxyphenyl)quinazolin-4-ylamino)pyrrolidin-2-yl)(4-methylpiperazin-1-yl)methanone] | 0.3 to 3 | < 3 |
| NC(=O)c1ccc(-c2ccc(O)c(-c3nc(N[C@H]4CCNC4)c4ccccc4n3)c2)cc1 [Compound A-101, (S)-4′-Hydroxy-3′-(4-(pyrrolidin-3-ylamino)quinazolin-2-yl)biphenyl-4-carboxamide] | 3 to 30 | – |
| CC(C)(O)C#Cc1ccc2c(N[C@H]3CCNC3)nc(-c3cc(F)ccc3O)nc2c1 [Compound A-093, (S)-4-Fluoro-2-(7-(3-hydroxy-3-methylbut-1-ynyl)-4-(pyrrolidin-3-ylamino)quinazolin-2-yl)phenol] | ≤ 0.3 | – |
| CN(CCO)C(=O)[C@H]1C[C@H](Nc2nc(-c3ccccc3O)nc3ccccc23)CN1 [Compound A-047, (2R,4S)-N-(2-Hydroxyethyl)-4-(2-(2-hydroxyphenyl)quinazolin-4-ylamino)-N-methylpyrrolidine-2-carboxamide] | 0.3 to 3 | < 3 |
| Oc1ccccc1-c1nc(N[C@H]2CCNC2)c2ccc(-c3cn[nH]c3)cc2n1 [Compound A-065, (S)-2-(7-(1H-Pyrazol-4-yl)-4-(pyrrolidin-3-ylamino)quinazolin-2-yl)phenol] | ≤ 0.3 | – |
| CN1CCC[C@@H](Nc2nc(-c3ccccc3O)nc3ccccc23)C1 [Compound A-008, 2-[4-((R)-1-Methylpiperidin-3-ylamino)-quinazolin-2-yl]-phenol] | 0.3 to 3 | < 3 |
| CC(C)(O)C#Cc1ccc2nc(-c3cc(F)ccc3O)nc(N[C@H]3CCNC3)c2c1 [Compound A-109, (S)-4-Fluoro-2-(6-(3-hydroxy-3-methylbut-1-ynyl)-4-(pyrrolidin-3-ylamino)quinazolin-2-yl)phenol] | 0.3 to 3 | – |
| N[C@@H]1CCCC[C@H]1Nc1nc(-c2ccccc2O)nc2ccccc12 (relative stereo) [Compound B-003, 2-[4-(trans-2-Aminocyclohexylamino)-quinazolin-2-yl]-phenol] | 0.3 to 3 | < 3 |
| O=C(Nc1ccccc1)[C@H]1C[C@H](Nc2nc(-c3ccccc3O)nc3ccccc23)CN1 [Compound A-039, (2R,4S)-4-(2-(2-Hydroxyphenyl)quinazolin-4-ylamino)-N-phenylpyrrolidine-2-carboxamide] | 0.3 to 3 | < 3 |
| COC(=O)[C@H]1C[C@H](Nc2nc(-c3cc(Cl)ccc3O)nc3ccccc23)CN1 [Compound A-026, (2R,4S)-Methyl 4-(2-(5-chloro-2-hydroxyphenyl)quinazolin-4-ylamino)pyrrolidine-2-carboxylate] | ≤ 0.3 | < 3 |
| NC1CCC(Nc2nc(-c3ccccc3O)nc3ccccc23)CC1 (centres unmarked) [Compound B-001, 2-[4-(4-Aminocyclohexylamino)-quinazolin-2-yl]-phenol] | 3 to 30 | 3 to 30 |
| COCCOc1ccc2nc(-c3cc(F)ccc3O)nc(N[C@H]3CCNC3)c2c1 [Compound A-095, (S)-4-Fluoro-2-(6-(2-methoxyethoxy)-4-(pyrrolidin-3-ylamino)quinazolin-2-yl)phenol] | ≤ 0.3 | – |
| COc1ccc2c(N[C@@H]3CN[C@@H](CO)C3)nc(-c3cc(F)ccc3O)nc2c1 [Compound A-087, 4-Fluoro-2-(4-((3S,5R)-5-(hydroxymethyl)pyrrolidin-3-ylamino)-7-methoxyquinazolin-2-yl)phenol] | ≤ 0.3 | – |

Further lines, results first:

| IC50 (following further studies) [µM] | IC50 (first set of tested compounds) [µM] | Compound |
| --- | --- | --- |
| 3 to 30 | 3 to 30 | CC(C)(C)c1ccc(O)c(-c2nc(N[C@H]3CCNC3)c3ccccc3n2)c1 [Compound A-022, (S)-4-tert-Butyl-2-(4-(pyrrolidin-3-ylamino)quinazolin-2-yl)phenol] |
| ≤ 0.3 | – | C[C@@H]1CNC[C@H]1Nc1nc(-c2cc(F)ccc2O)nc2ccccc12 (relative stereo) [Compound A-099, 4-Fluoro-2-(4-(trans-4-methylpyrrolidin-3-ylamino)quinazolin-2-yl)phenol] |
| ≤ 0.3 | < 3 | Oc1ccc(Cl)cc1-c1nc(N[C@@H]2CCCNC2)c2ccccc2n1 [Compound A-013, (R)-4-Chloro-2-(4-(piperidin-3-ylamino)quinazolin-2-yl)phenol] |
| ≤ 0.3 | – | Oc1ccc(F)cc1-c1nc(NC2CCCCNC2)c2ccccc2n1 (centres unmarked) [Compound A-059, 2-(4-(Azepan-3-ylamino)quinazolin-2-yl)-4-fluorophenol] |
| ≤ 0.3 | < 3 | Oc1ccc(F)cc1-c1nc(N[C@@H]2CCCNC2)c2ccccc2n1 [Compound A-014, (R)-4-Fluoro-2-(4-(piperidin-3-ylamino)quinazolin-2-yl)phenol] |
| ≤ 0.3 | – | COc1ccc2nc(-c3cc(F)ccc3O)nc(N[C@H]3CCNC3)c2c1 [Compound A-073, (S)-4-Fluoro-2-(6-methoxy-4-(pyrrolidin-3-ylamino)quinazolin-2-yl)phenol] |
| 3 to 30 | – | Oc1ccc(-c2ccc(F)cc2)cc1-c1nc(N[C@H]2CCNC2)c2ccccc2n1 [Compound A-100, (S)-4′-Fluoro-3-(4-(pyrrolidin-3-ylamino)quinazolin-2-yl)biphenyl-4-ol] |
| ≤ 0.3 | < 3 | CN(C)C(=O)[C@H]1C[C@H](Nc2nc(-c3cc(F)ccc3O)nc3ccccc23)CN1 [Compound A-046, (2R,4S)-4-(2-(5-Fluoro-2-hydroxyphenyl)quinazolin-4-ylamino)-N,N-dimethylpyrrolidine-2-carboxamide] |
| ≤ 0.3 | – | OCC#Cc1ccc2c(N[C@H]3CCNC3)nc(-c3cc(F)ccc3O)nc2c1 [Compound A-072, (S)-4-Fluoro-2-(7-(3-hydroxyprop-1-ynyl)-4-(pyrrolidin-3-ylamino)quinazolin-2-yl)phenol] |
